Data from patent US9751874B2, “Hydroxy containing FXR (NR1H4) modulating compounds” (Gilead Sciences, Inc., priority 2014, dated 2017).
Counter-ions that a name gives are not always drawn.

Tests used:
[1] = target: T1, FXR ligand binding domain (Homo sapiens, UniProt Q96RI1); test: Mammalian One Hybrid (M1H) assay, Gal4 promoter driven transactivation in HEK293 cells; format: cell-based; conditions: Gal4-FXR-LBD luciferase reporter, 16 h
T1 construct: expressed in transfected cells; host or cells: HEK293 cells, transiently transfected with pCMV-BD-FXR-LBD, pFR-Luc and pRL-CMV
T1 sequence (Q96RI1 187-472 isoform Q96RI1-2): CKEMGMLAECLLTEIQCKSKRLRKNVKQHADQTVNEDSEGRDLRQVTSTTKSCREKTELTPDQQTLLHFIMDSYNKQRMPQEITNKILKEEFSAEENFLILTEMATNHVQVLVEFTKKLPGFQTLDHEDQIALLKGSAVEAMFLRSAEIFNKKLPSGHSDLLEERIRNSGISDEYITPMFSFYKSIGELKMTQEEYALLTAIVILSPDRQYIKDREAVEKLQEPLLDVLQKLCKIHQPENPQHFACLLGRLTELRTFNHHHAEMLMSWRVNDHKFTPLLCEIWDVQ
In short: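 HEK293 cells were transiently co-transfected with Gal4-DBD fused to the human FXR LBD (aa 187-472, NM_005123), a 5×GAL4-site firefly luciferase reporter and CMV-Renilla control. Compounds were added 2-4 h post-transfection (vehicle ≤0.1%) in charcoal/dextran-stripped FBS medium for 16 h. Firefly and Renilla luciferase were read sequentially, in triplicate.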

[2] = target: T2, human FXR alpha ligand binding domain (Homo sapiens, UniProt Q96RI1); test: FRET activity assay (ligand mediated cofactor peptide interaction, LANCE); format: biochemical; conditions: GST-FXR-LBD / biotinylated SRC-1 peptide (676-700), read-out: F EC50
T2 construct: made in house; host or cells: E. coli BL21(DE3), vector pDEST15
T2 sequence (Q96RI1 187-472 isoform Q96RI1-2): T1 sequence (Q96RI1 187-472 isoform Q96RI1-2)
In short: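 GST-tagged FXR LBD (aa 187–472, E. coli-expressed) at 20–60 ng/well with 200–600 nM biotinylated SRC-1 peptide (676–700), streptavidin-APC and Eu anti-GST in Tris pH 7.5 buffer, 1% DMSO, equilibrated 1 h dark at room temperature. TR-FRET read as 665/615 nm ratio; agonists raise signal above basal.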

Row | SMILES | EC50 [1] [nM] | EC50 [2] [nM]
1 | O=C(O)c1cc(F)c2nc([C@]3(O)CC4CC3CC4OCc3c(-c4c(Cl)cccc4Cl)noc3C3CC3)sc2c1 (stereo partly drawn) [Example 11-49, 2-((1R,2S,4R)-5-((5-Cyclopropyl-3-(2,6-dichlorophenyl)isoxazol-4-yl)methoxy)-2-hydroxybicyclo[2.2.1]heptan-2-yl)-4-fluorobenzo[d]thiazole-6-carboxylic acid] | 93 | 28
2 | O=C(O)c1cccc([C@]2(O)[C@@H]3CC[C@H]2C[C@H](OCc2c(-c4c(Cl)cccc4Cl)noc2C2CC2)C3)c1 [Example 11-25, 3-((1R,3s,5S,8r)-3-((5-Cyclopropyl-3-(2,6-dichlorophenyl)isoxazol-4-yl)methoxy)-8-hydroxybicyclo[3.2.1]octan-8-yl)benzoic acid] | 430 | 79
3 | CC(C)(Cc1cccc([C@]2(O)[C@@H]3CC[C@H]2C[C@H](OCc2c(-c4c(Cl)cccc4Cl)noc2C2CC2)C3)c1)C(=O)O [Example 11-53, 3-(3-((1R,3s,5S,8r)-3-((5-Cyclopropyl-3-(2,6-dichlorophenyl)isoxazol-4-yl)methoxy)-8-hydroxybicyclo[3.2.1]octan-8-yl)phenyl)-2,2-dimethylpropanoic acid] | 391 | 235
4 | O=C(O)c1ccnc([C@]2(O)[C@@H]3CC[C@H]2C[C@H](OCc2c(-c4c(Cl)cccc4Cl)noc2C2CC2)C3)c1 [Example 11-26] | 1800 | 53
5 | CC(C)c1onc(-c2c(Cl)cccc2Cl)c1CO[C@@H]1C[C@H]2CC[C@@H](C1)[C@]2(O)c1nc2c(F)cc(C(=O)O)cc2s1 [Example 11-51, 2-((1R,3s,5S,8r)-3-((3-(2,6-Dichlorophenyl)-5-isopropylisoxazol-4-yl)methoxy)-8-hydroxybicyclo[3.2.1]octan-8-yl)-4-fluorobenzo[d]thiazole-6-carboxylic acid] | 0.62 | 3.7
6 | O=C(O)C1(Oc2cc(F)cc([C@]3(O)[C@@H]4CC[C@H]3C[C@H](OCc3c(-c5c(Cl)cccc5Cl)noc3C3CC3)C4)c2)CC1 [Example 14-3, 1-(3-((1R,3s,5S,8r)-3-((5-Cyclopropyl-3-(2,6-dichlorophenyl)isoxazol-4-yl)methoxy)-8-hydroxybicyclo[3.2.1]octan-8-yl)-5-fluorophenoxy)cyclopropanecarboxylic acid] | 520 | 41
7 | CC(C)(O)c1cc(F)c2nc([C@]3(O)CC[C@@H](OCc4c(-c5c(Cl)cncc5Cl)noc4C4CC4)CC3)sc2c1 [Example 20, (1s,4s)-4-((5-Cyclopropyl-3-(3,5-dichloropyridin-4-yl)isoxazol-4-yl)methoxy)-1-(4-fluoro-6-(2-hydroxypropan-2-yl)benzo[d]thiazol-2-yl)cyclohexanol] | 200 | 150
8 | O=C(NCCS(=O)(=O)O)c1cc(F)c2nc([C@]3(O)[C@@H]4CC[C@H]3C[C@H](OCc3c(-c5c(Cl)cccc5Cl)noc3C3CC3)C4)sc2c1 [Example 39, 2-(2-((1R,3s,5S,8r)-3-((5-Cyclopropyl-3-(2,6-dichlorophenyl)isoxazol-4-yl)methoxy)-8-hydroxybicyclo[3.2.1]octan-8-yl)-4-fluorobenzo[d]thiazole-6-carboxamido)ethanesulfonic acid, ammonia salt] | 760 | 3.2

Now from value to molecule:

Row | EC50 [1] [nM] | EC50 [2] [nM] | SMILES
9 | 440 | 110 | O=C(O)c1ccc2nc([C@]3(O)CC[C@@H](OCc4c(C5CC5)cnn4-c4c(Cl)cccc4Cl)CC3)sc2c1 [Example 11-13, 2-((1s,4s)-4-((4-Cyclopropyl-1-(2,6-dichlorophenyl)-1H-pyrazol-5-yl)methoxy)-1-hydroxycyclohexyl)benzo[d]thiazole-6-carboxylic acid]
10 | 1800 | 980 | O=C(O)c1ccc2nc([C@]3(O)CC[C@@H](OCc4c(C5CC5)cnn4-c4ccccc4OC(F)F)CC3)sc2c1 [Example 11-17, 2-((1s,4s)-4-((4-Cyclopropyl-1-(2-(difluoromethoxy)phenyl)-1H-pyrazol-5-yl)methoxy)-1-hydroxycyclohexyl)benzo[d]thiazole-6-carboxylic acid]
11 | 400 | 190 | O=Cc1nsc2ccc([C@]3(O)CC[C@@H](OCc4c(-c5c(Cl)cccc5Cl)noc4C4CC4)CC3)cc12 [Example 32, 5-((1s,4s)-4-((5-Cyclopropyl-3-(2,6-dichlorophenyl)isoxazol-4-yl)methoxy)-1-hydroxycyclohexyl)benzo[d]isothiazole-3-carbaldehyde]
12 | 1900 | 22 | CS(=O)(=O)NC(=O)c1cc(F)c2nc([C@]3(O)CC[C@@H](OCc4c(-c5c(Cl)cccc5Cl)noc4C4CC4)CC3)sc2c1 [Example 16, 2-((1s,4s)-4-((5-Cyclopropyl-3-(2,6-dichlorophenyl)isoxazol-4-yl)methoxy)-1-hydroxycyclohexyl)-4-fluoro-N-(methylsulfonyl)benzo[d]thiazole-6-carboxamide]
13 | 1300 | 150 | O=C(O)c1cc(F)c2nc([C@]3(O)CC[C@@H](OCc4c(-c5ccccc5OC(F)F)noc4C4CC4)CC3)sc2c1 [Example 11-7, 2-((1s,4s)-4-((5-Cyclopropyl-3-(2-(difluoromethoxy)phenyl)isoxazol-4-yl)methoxy)-1-hydroxycyclohexyl)-4-fluorobenzo[d]thiazole-6-carboxylic acid]
14 | 94 | 60 | O=C(O)c1ccc([C@]2(O)CC[C@@H](OCc3c(-c4c(Cl)cccc4Cl)noc3C3CC3)CC2)c(F)c1 [Example 11-5, 4-((1s,4s)-4-((5-Cyclopropyl-3-(2,6-dichlorophenyl)isoxazol-4-yl)methoxy)-1-hydroxycyclohexyl)-3-fluorobenzoic acid]
15 | 300 | 56 | O=C(O)c1ccc2nc(C3(O)CC4(CC(OCc5c(-c6c(Cl)cccc6Cl)noc5C5CC5)C4)C3)sc2c1 (single isomer, unassigned) [Example 11-4a, 2-(6-((5-Cyclopropyl-3-(2,6-dichlorophenyl)isoxazol-4-yl)methoxy)-2-hydroxyspiro[3.3]heptan-2-yl)benzo[d]thiazole-6-carboxylic acid]
16 | 36 | 20 | Cn1cc(C(=O)O)c2ccc([C@]3(O)CC[C@@H](OCc4c(-c5c(Cl)cccc5Cl)noc4C4CC4)CC3)cc21 [Example 11-42, 6-((1s,4s)-4-((5-Cyclopropyl-3-(2,6-dichlorophenyl)isoxazol-4-yl)methoxy)-1-hydroxycyclohexyl)-1-methyl-1H-indole-3-carboxylic acid]
17 | 270 | 230 | O=C(O)c1ccc2nc([C@]3(O)CC[C@@H](OCc4c(-c5ccccc5OC(F)(F)F)noc4C4CC4)CC3)sc2c1 [Example 11-14, 2-((1s,4s)-4-((5-Cyclopropyl-3-(2-(trifluoromethoxy)phenyl)isoxazol-4-yl)methoxy)-1-hydroxycyclohexyl)benzo[d]thiazole-6-carboxylic acid]
18 | 5.2 | 9.6 | O=C(O)c1ccc2nc([C@@]3(O)[C@@H]4CC5C[C@H]3C[C@](OCc3c(-c6c(Cl)cccc6Cl)noc3C3CC3)(C5)C4)sc2c1 [Example 11-35, 2-((1R,2r,3S,5s,7s)-5-((5-Cyclopropyl-3-(2,6-dichlorophenyl)isoxazol-4-yl)methoxy)-2-hydroxyadamantan-2-yl)benzo[d]thiazole-6-carboxylic acid]
